Where a name gives a salt, the structure may show the parent alone.
Columns and labels:
[1] = Writhing Test on the mouse (analgesic activity); format: in vivo; conditions: po
Text: (§1) As already mentioned earlier, the compounds of formula I and their pharmaceutically acceptable acid addition salts have valuable pharmacodynamic properties. In particular, they have interesting analgesic, anti-depressant and acute inflammation-inhibiting properties. […] In the following Table there are given the results determined in these tests for some representative members of the class of compound defined by general formula I. Moreover, the Table contains data concerning the acute toxicity of these compounds (LD50 after single oral administration to mice).

[2] = tested on: serotonin-uptake; experiment: Serotonin-uptake Test (antidepressant activity; M. J. Kuhar et al.); format: biochemical
Text: as §1

[3] = Acute toxicity, LD50 after single oral administration to mice; conditions: mouse, in vivo
Text: as §1

SMILES	ED50 [1] [mg/kg]	IC50 [2] [nM]	LD50 [3] [mg/kg]
CN(C)C[C@@H](c1ccc(Cl)cc1)[C@@H]1CCCCC1=O (relative stereo) [rac-(2S*)-2-/(R*)-4-chloro-α-[(dimethylamino)methyl]benzyl/cyclohexanone hydrochloride]	22	240	156 to 312
CN(C)C[C@@H](c1ccc(O)cc1)[C@@H]1CCCC[C@@H]1O (relative stereo) [rac-(1S*)-cis-2-/(R*)-α-[(dimethylamino)methyl]-4-hydroxybenzyl/cyclohexanol]	8.4	180	500 to 1000
COc1ccc([C@H](CN(C)C)[C@@H]2CCCC[C@@H]2O)cc1 (relative stereo) [rac-(1S*)-cis-2-/(R*)-4-methoxy-α-[(dimethylamino)methyl]benzyl/cyclohexanol hydrochloride]	23	120	250 to 500
COc1ccc([C@H](CN(C)C)[C@@H]2CCCC[C@@H]2O)cc1OC (relative stereo) [rac-(1S*)-cis-2-/(R*)-α-[(dimethylamino)methyl]-3,4-dimethoxybenzyl/cyclohexanol hydrochloride]	10	100	500 to 1000
CN(C)C[C@H](c1ccc(Cl)cc1)[C@H]1CCCC[C@H]1O [(-)-(1R)-cis-2-/(S)-4-chloro-α-[(dimethylamino)methyl]benzyl/cyclohexanol hydrochloride]	19	55	125 to 250
CN(C)C[C@@H](c1ccc(Cl)cc1)[C@@H]1CCCC[C@@H]1O [(+)-(1S)-cis-2-/(R)-4-chloro-α-[(dimethylamino)methyl]benzyl/cyclohexanol hydrochloride]	14	110	125 to 250
CN(C)C[C@@H](c1ccc(Cl)c(Cl)c1)[C@@H]1CCCC[C@@H]1O (relative stereo) [rac-(1S*)-cis-2-/(R*)-3,4-dichloro-α-[(dimethylamino)methyl]benzyl/cyclohexanol hydrochloride]	9.7	21	62.6 to 125
CN(C)C[C@@H](c1ccc(Cl)cc1)[C@@H]1CCCC[C@@H]1O (relative stereo) [rac-(1S*)-cis-2-/(R*)-4-chloro-α-[(dimethylamino)methyl]benzyl/cyclohexanol hydrochloride]	18	88	312 to 625
